{"source": "patent US20010053795A1", "about": "“Paradoxical pharmacology” (priority 2000, published 2001)", "test_system": "spontaneously hypertensive rat (SHR)", "assay": "Blood pressure (tail-cuff) in spontaneously hypertensive rats after L-NAME infusion", "type": "in vivo", "details": "L-NAME 10 ml/kg/10 min for 10 min", "method": "To determine a possible mechanism underlying the decrease in blood pressure after infusion of NE/E, L-NAME (N(omega)-nitro-L-arginine methyl ester), which is a nitric oxide synthase inhibitor, was infused at a rate of 10 ml/kg/10 min for a total 10 min. After infusion of the L-NAME, blood pressure was measured via the tail-cuff method. FIG. 3 illustrates the effect of the blood pressure after infusion of L-NAME.\nNitric oxide is tonically released by the activity of the constitutive endothelial and neuronal NO synthases (NOS). Nitric oxide is vasodilatory, and tonically produced NO maintains low blood pressure. During exercise, there is an increase in norepinephrine and an increase in nitric oxide production. […] The increase in production of nitric oxide is due to an activation of nitric oxide synthase, which in turn increase the levels of nitric oxide."}
{"smiles": "COC(=O)[C@@H](N)CCCNC(=N)N[N+](=O)[O-]", "note": "[L-NAME, N(omega)-nitro-L-arginine methyl ester]", "values": [{"measurement": "effect on blood pressure after L-NAME infusion", "setting": "SHR treated with NE/E for 28 days", "value": "increase in blood pressure"}, {"measurement": "effect on blood pressure after L-NAME infusion", "setting": "SHR treated with vehicle for 28 days (controls)", "value": "further decrease in the blood pressure"}]}
